According to US8175808B2, “Method for determining disease treatment duration” (Sloan Kettering Institute for Cancer Research, priority 2005, dated 2012):

Legend:
[1] = system: MX-1 or MAXF401 human breast cancer xenografts; conditions: 6 weeks, CDS (days on/off) 14/7, 5/2, 2/5, 7/7, 4 dose levels plus control; Yanagisawa, Proc. AACR 2004; cited from earlier work
[2] = system: MX-1 or MAXF401 human breast cancer xenografts; assay: Tumor volume growth in mice bearing human breast cancer xenografts; drug effect DE(t) and time point of maximum impact (TPMI) from Gompertzian/polynomial fits; type: in vivo; conditions: for maximum drug effect, DE(TPMI): dimensionless; for elapsed time to zero crossing of derivative DE'(t) (TPMI) / elapsed time after start of treatment to relative maximum in DE(t) (TPMI): pooled data, 14 days on/7 off; for elapsed time after start of treatment to relative maximum in DE(t) (TPMI): first cycle
Excerpt: The untreated series of measurements reveal the progression of the disease without treatment, and therefore it is not obtained from a patient to be treated using the method. Typically the untreated series of measurements describes the progression of the disease in one or more historical cases, or test subjects, or both. For example, the untreated series of measurements describes the progression of tumor volume with time in breast cancer victims who are not treated for some number of weeks. In the illustrated embodiment, described further in later sections, the untreated series of measurements describe tumor volume in mice bearing MX-1 or MAXF401 human breast cancer xenografts approximately every two days for about seven weeks (50 days). FIG. 2A is a graph 210 that illustrates, as solid-filled circles 216, pooled measurements of tumor volume growth for untreated breast cancer in xenograft models (MX-1). Untreated tumor growth is sometimes called “naïve growth.” The horizontal axis 212 indicates the passage of time in days since an initial time. The vertical axis 214 indicates the tumor volume in cubic millimeters (mm^3). The solid trace 218 represents a model fit to the data as described in more detail below.
In the illustrated embodiment, described further in later sections, two treated series of measurements describe tumor volume in mice bearing MX-1 or MAXF401 human breast cancer xenografts approximately every two days for about seven weeks (50 days) during treatment. The treatment involves administering the drug XELODA according to the standard protocol: a 14-day duration of administering the drug at a particular dose, followed by a 7 day hiatus in administering the drug. One treatment uses a lower dose of 1.5 millimoles (mmol) per kilogram (kg) of victim weight per day (mmol/kg/day). A second treatment uses a higher dose of 2.25 mmol/kg/day. Each of the two treated series describes the progression of tumor volume with time in the treated victim of the disease, and includes an initial measurement of tumor volume at or near when the treatment was started, for example just before the first injection of the drug. The initial measurement is used in a later step to relate a treated series to the untreated series, which typically occur in different subjects.
In step 130, a temporal series of effectiveness values is determined. Any method may be used to determine an effectiveness value. In the illustrated embodiment, each effectiveness value indicates the ratio between the rate of change of the physical property for the treated disease and the rate of change for the untreated disease at a corresponding time. For purposes of illustration, it is assumed that the temporal progression of the physical property for the untreated disease is represented by the function Pu(t) and that its rate of change is given by its first time derivative Pu′(t). Similarly, it is assumed that the temporal progression of the physical property for the treated disease is represented by the function Pt(t) and that its rate of change is given by its first time derivative Pt′(t). It is further assumed that the temporal progression of the ratio is represented by the function R(t) and is given by Equation 1 R(t)=Pt′(t)/Pu′(t) (1). In other embodiments, a different definition of ratio is used. For example, in some embodiments the ratio given by the reciprocal of R(t) is used. In the illustrated embodiments, R is the ratio of two physical properties with the same units and is therefore dimensionless.
An effectiveness parameter is often defined that indicates the ratio R(t) but offers a more useful description of the effect of a treatment than the ratio itself. […]

## CCCCCOC(=O)Nc1nc(=O)n([C@@H]2O[C@H](C)[C@@H](O)[C@H]2O)cc1F [capecitabine]
[1]
  effectiveness of CDS regimens: all were effective at an appropriate dose
[2]; 7-day duration/7-day hiatus, high dose 2.5 mmol/kg/day
  maximum drug effect, DE(TPMI): about 0.8
[2]; follow-up experiment, higher daily dose with 7 on/7 off
  maximal DE, 7 on/7 off CDS compared with 14 on/7 off CDS: increased maximal DE
[2]; higher dose 2.25 mmol/kg/day
  elapsed time to zero crossing of derivative DE'(t) (TPMI): 8.3 days
  elapsed time after start of treatment to relative maximum in DE(t) (TPMI): 8 days
[2]; lower dose 1.5 mmol/kg/day
  elapsed time to zero crossing of derivative DE'(t) (TPMI): 10.1 days
  elapsed time after start of treatment to relative maximum in DE(t) (TPMI): 10 days
[2]; pooled mice, dose levels analyzed (1.5 and 2.25 mmol/kg/day), 14/7 CDS
  time point of maximum impact (TPMI), averaged, days into therapy: 8.3 to 10.1 days
[2]; standard protocol, 14-day duration/7-day hiatus
  maximum drug effect, DE(TPMI): about 0.65
